Tested on: leader cell sub-population (H1299 leader cells)
Experiment: drug screening of rare lung cancer cells isolated by spatiotemporal genomic and cellular analysis (SaGA)
Format: cell-based, human
Conditions: rare lung cancer cells identified by SaGA, then drug screening; see FIG. 2A
Text: See e.g., Burrell et al., Nature, 2013, 501:338-345. Spatiotemporal genomic and cellular analysis (SaGA) is a technique which involves a combination of microscopy and genomics to isolate rare cells. See Konen et al. Nat Comm, 2017, 8:15078. Dendra2 is a photoconvertible fluorophore which emits green fluorescence. However, when excited by 405 nm light, green fluorescence is converted to red fluorescence due to cleavage of a histidine. Therefore, with single cell precision, any cancer cell expressing Dendra2 can be optically highlighted (turned red) using a point scanning confocal microscope. A region of interest is drawn around the cell(s) of interest, based upon by transmitted light or fluorescent protein tags. This region can be exposed to a 405 nm laser, resulting in near instantaneous photoconversion of Dendra2, and photomarking the cell red. Single cells can be photoconverted, without inducing any measurable photoconversion of neighboring cells. Cells are extracted from the 3-D environment using dispase for 15 minutes (collagenase for collagen). Cells are then sorted to separate red photoconverted cells from green cells using a FACS. Isolated cells are grown in culture using standard cell culture techniques. Spatiotemporal genomic and cellular analysis (SaGA) was used to identify rare lung cancer cells which were then subject to drug screening.

CCCCC(CC)CNC(=N)NC(=N)NCCCCCCNC(=N)NC(=N)NCC(CC)CCCC (stereo not shown) [alexidine, 1,1′-(hexane-1,6-diyl)bis(5-(2-ethylhexyl)biguanidine)]
effect on metastasis / invasive cell pack: disrupt metastasis by targeting a rare cell type within the invasive cell pack

Source: patent US12582618B2, “Bis-biguanide compounds, pharmaceutical compositions and uses in managing cancer” (Emory University, priority 2019, dated 2026)
